Laboratory results: patent publication US12441726B2, “Compounds and uses thereof” (Foghorn Therapeutics Inc., priority 2020, dated 2025)

Key:
BRM = BRM (Homo sapiens, UniProt P51531); test: ATPase catalytic activity assay (ADP-Glo), BRM; conditions: 30 nM BRM, 400 μM ATP; for IC50: BRM ATPase: IC50 (uM)
Method: The ATPase catalytic activity of BRM or BRG-1 was measured by an in vitro biochemical assay using ADP-Glo™ (Promega, V9102). The ADP-Glo™ kinase assay is performed in two steps once the reaction is complete. The first step is to deplete any unconsumed ATP in the reaction. The second step is to convert the reaction product ADP to ATP, which will be utilized by the luciferase to generate luminesce and be detected by a luminescence reader, such as Envision.
Then following addition of 5 μL of ADP-Glo™ Reagent provided in the kit, the reaction incubates at room temperature for 40 minutes. Then 10 μL of Kinase Detection Reagent provided in the kit is added to convert ADP to ATP, and the reaction incubates at room temperature for 60 minutes. Finally, luminescence measurement is collected with a plate-reading luminometer, such as Envision.

BRG-1 = BRG-1 (Homo sapiens, UniProt P51532); test: ATPase catalytic activity assay (ADP-Glo), BRG-1; conditions: for Emax: 1 h, read-out: BRG1 Max % Inhibition, ADP-Glo, 30 nM BRG-1, 400 μM ATP
Sequence of BRG-1 (P51532 whole entry): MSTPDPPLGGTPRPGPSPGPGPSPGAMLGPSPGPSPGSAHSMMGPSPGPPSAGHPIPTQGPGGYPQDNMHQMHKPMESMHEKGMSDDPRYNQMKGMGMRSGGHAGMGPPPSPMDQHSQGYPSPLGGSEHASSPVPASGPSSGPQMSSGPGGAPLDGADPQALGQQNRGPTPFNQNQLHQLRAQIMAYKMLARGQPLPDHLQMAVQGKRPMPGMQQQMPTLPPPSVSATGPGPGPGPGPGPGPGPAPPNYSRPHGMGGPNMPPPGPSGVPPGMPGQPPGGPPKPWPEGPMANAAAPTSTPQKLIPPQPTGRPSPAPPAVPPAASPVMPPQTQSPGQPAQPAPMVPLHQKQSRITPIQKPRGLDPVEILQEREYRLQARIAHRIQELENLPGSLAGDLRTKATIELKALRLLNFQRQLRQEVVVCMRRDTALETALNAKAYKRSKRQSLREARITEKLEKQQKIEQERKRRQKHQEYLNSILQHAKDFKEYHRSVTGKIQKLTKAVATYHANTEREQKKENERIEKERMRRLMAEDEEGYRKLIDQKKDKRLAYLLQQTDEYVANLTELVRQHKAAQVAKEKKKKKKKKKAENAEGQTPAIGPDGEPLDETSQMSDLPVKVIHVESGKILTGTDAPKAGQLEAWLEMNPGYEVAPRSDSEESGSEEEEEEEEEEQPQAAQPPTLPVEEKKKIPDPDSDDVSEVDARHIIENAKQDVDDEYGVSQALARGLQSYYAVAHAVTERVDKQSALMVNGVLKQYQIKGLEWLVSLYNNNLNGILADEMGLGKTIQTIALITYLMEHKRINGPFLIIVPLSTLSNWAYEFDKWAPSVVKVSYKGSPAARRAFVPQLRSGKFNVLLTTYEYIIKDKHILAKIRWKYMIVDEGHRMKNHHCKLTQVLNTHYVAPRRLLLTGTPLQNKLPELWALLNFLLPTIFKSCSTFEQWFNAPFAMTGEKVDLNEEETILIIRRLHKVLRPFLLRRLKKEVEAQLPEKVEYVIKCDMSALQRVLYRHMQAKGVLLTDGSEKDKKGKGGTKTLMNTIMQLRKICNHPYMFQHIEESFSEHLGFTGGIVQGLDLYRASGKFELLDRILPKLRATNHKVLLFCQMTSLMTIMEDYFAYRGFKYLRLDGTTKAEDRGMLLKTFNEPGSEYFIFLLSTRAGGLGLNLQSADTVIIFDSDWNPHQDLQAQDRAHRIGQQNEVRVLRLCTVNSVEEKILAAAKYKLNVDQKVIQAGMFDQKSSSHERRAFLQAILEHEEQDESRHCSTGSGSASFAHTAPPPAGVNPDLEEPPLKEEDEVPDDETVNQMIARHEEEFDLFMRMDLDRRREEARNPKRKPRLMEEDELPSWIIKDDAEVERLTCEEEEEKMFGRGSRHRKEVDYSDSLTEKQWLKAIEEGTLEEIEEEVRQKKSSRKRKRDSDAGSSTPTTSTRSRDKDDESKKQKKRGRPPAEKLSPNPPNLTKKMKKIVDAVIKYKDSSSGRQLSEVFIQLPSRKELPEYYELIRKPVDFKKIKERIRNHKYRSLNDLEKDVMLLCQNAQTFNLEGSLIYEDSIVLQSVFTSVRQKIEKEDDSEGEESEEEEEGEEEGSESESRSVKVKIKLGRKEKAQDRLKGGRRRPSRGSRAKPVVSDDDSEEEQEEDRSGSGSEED

Sequence of BRM (P51531 whole entry): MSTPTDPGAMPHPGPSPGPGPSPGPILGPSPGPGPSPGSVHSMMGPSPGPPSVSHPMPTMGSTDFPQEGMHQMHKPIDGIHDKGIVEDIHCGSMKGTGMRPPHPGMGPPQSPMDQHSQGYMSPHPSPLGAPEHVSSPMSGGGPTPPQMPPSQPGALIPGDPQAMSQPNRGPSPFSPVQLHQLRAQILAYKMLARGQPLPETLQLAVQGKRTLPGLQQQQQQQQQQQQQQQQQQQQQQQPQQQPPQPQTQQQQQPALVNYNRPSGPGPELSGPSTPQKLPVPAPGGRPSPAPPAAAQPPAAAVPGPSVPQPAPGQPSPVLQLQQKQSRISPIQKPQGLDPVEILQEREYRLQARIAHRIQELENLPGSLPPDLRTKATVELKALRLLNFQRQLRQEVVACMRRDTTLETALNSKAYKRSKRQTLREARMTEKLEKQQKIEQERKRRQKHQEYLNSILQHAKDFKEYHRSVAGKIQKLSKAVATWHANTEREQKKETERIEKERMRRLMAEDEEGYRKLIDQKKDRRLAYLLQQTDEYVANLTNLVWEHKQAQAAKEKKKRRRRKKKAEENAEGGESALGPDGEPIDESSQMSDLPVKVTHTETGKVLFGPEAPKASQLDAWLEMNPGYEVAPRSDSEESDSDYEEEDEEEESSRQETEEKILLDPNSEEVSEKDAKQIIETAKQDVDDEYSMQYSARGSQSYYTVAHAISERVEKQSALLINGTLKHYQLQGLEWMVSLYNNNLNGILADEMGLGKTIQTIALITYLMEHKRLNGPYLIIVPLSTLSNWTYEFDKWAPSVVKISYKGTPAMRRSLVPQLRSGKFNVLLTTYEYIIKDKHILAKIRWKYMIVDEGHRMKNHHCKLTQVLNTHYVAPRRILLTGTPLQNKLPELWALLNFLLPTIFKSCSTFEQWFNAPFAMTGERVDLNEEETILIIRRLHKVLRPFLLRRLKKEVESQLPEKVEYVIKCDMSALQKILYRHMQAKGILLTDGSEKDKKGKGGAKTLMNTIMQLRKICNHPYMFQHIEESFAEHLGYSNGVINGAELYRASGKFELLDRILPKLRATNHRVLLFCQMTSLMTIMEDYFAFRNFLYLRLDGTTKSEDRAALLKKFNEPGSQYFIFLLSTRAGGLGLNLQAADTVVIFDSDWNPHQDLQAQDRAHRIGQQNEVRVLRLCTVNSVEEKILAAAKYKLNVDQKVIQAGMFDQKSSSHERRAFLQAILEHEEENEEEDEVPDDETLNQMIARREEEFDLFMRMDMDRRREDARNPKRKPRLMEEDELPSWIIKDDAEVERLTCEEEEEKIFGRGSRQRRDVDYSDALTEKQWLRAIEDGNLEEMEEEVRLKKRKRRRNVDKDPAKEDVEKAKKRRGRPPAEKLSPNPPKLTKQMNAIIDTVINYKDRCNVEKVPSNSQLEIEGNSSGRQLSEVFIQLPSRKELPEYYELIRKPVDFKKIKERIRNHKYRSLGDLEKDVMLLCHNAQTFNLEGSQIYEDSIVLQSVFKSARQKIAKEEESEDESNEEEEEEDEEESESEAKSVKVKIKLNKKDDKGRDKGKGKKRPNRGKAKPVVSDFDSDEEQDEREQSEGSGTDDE

SMILES	BRM Max % Inhibition (BRM)	IC50 (BRM)	IC50 (BRG-1)	Emax (BRG-1)
C[C@@]1(C#N)COCc2ccc(C(=O)NCc3cc(OCc4cccc(N5CCC5)n4)ccn3)cc21 [Compound 34]	94%	0.1 to 0.5 µM	> 1000 nM	53%
C[C@@]1(C#N)COCc2ccc(C(=O)NCc3cc(OCc4ccccn4)ccn3)cc21 [Compound 36]	64%	> 1 µM	> 1000 nM	44%
COC(=O)c1cccc(C#Cc2ccnc(CNC(=O)c3ccc4c(c3)[C@](C)(C#N)CO4)c2)c1 [Compound 37]	76%	> 1 µM	> 1000 nM	21%
COc1cccc(/C=C/c2ccnc(CNC(=O)c3ccc4c(c3)[C@](C)(C#N)COC4)c2)c1 [Compound 38]	97%	< 0.1 µM	> 1000 nM	86%
COC(=O)c1cccc(C#Cc2ccnc(CNC(=O)c3ccc4c(c3)[C@](C)(C#N)CCN4)c2)c1 [Compound 39]	75%	> 1 µM	> 1000 nM	28%
C[C@@]1(C#N)COCc2ccc(C(=O)NCc3cc(OCc4cccc(N5CCC5)c4)ccn3)cc21 [Compound 40]	96%	0.1 to 0.5 µM	> 1000 nM	67%
COC[C@H](NC(=O)c1ccc2c(c1)[C@](C)(C#N)COC2)c1cc(/C=C/c2ccccc2)ccn1 [Compound 41]	85%	0.5 to 1 µM	> 1000 nM	55%
C[C@@]1(C#N)COCc2ccc(C(=O)NCc3cc(N4CCN(c5ccccc5)CC4)ccn3)cc21 [Compound 42]	97%	0.1 to 0.5 µM	500 to 1000 nM	84%
COC[C@H](NC(=O)c1ccc2c(c1)[C@](C)(C#N)COC2)c1cc(C#Cc2ccccc2)ccn1 [Compound 43]	68%	> 1 µM	> 1000 nM	34%
C[C@@]1(C#N)COCc2ccc(C(=O)NCc3cc(N4CCC(c5ccccc5)C4)ccn3)cc21 (some centres unmarked) [Compound 44]	97%	0.1 to 0.5 µM	> 1000 nM	69%
C[C@@]1(C#N)COCc2ccc(C(=O)NCc3cc(OCc4cc(F)c5c(c4)CCO5)ccn3)cc21 [Compound 45]	96%	< 0.1 µM	500 to 1000 nM	79%
C[C@@]1(C#N)COCc2ccc(C(=O)NCc3cc(N4CC(c5ccccc5)C4)cnn3)cc21 [Compound 46]	78%	> 1 µM	> 1000 nM	29%
O=C(NCc1cc(C#Cc2ccccc2)ccn1)c1ccc2c(c1)[C@@](F)(C(F)F)COC2 [Compound 47]	90%	0.1 to 0.5 µM	> 1000 nM	47%
O=C(NCc1cc(C#Cc2ccccc2)ccn1)c1ccc2c(c1)[C@](F)(C(F)F)COC2 [Compound 48]	67%	> 1 µM	> 1000 nM	11%
C[C@@]1(C#N)COCc2ccc(C(=O)NCc3cc(N4CCc5ccccc5CC4)ccn3)cc21 [Compound 50]	90%	0.1 to 0.5 µM	> 1000 nM	53%
COc1cc(F)cc2c1CCN(c1ccnc(CNC(=O)c3ccc4c(c3)[C@](C)(C#N)COC4)c1)C2 [Compound 51]	99%	< 0.1 µM	100 to 500 nM	94%
C[C@@]1(C#N)COCc2ccc(C(=O)NCc3cc(SCc4ccccc4)ccn3)cc21 [Compound 52]	86%	0.1 to 0.5 µM	> 1000 nM	34%
C[C@@]1(C#N)COCc2ccc(C(=O)NCc3cc(N4Cc5ccncc5C4)ccn3)cc21 [Compound 53]	88%	0.1 to 0.5 µM	> 1000 nM	48%
C[C@@]1(C#N)COCc2ccc(C(=O)NCc3cc(N4CCC(O)(c5ccccc5)C4)ccn3)cc21 (some centres unmarked) [Compound 54]	81%	0.1 to 0.5 µM	> 1000 nM	42%
C[C@@]1(C#N)COCc2ccc(C(=O)NCc3cc(N4CCC[C@H](c5ccccc5)C4)ccn3)cc21 [Compound 55]	82%	0.1 to 0.5 µM	> 1000 nM	33%
COc1cccc2c1CCN(c1ccnc(CNC(=O)c3ccc4c(c3)[C@](C)(C#N)COC4)c1)C2 [Compound 56]	98%	< 0.1 µM	100 to 500 nM	92%
C[C@@]1(C#N)COCc2ccc(C(=O)NCc3cc(N4CCC5CCCCC5C4)ccn3)cc21 (some centres unmarked) [Compound 57]	85%	0.1 to 0.5 µM	> 1000 nM	37%

SMILES	BRM Max % Inhibition (BRM)	IC50 (BRM)	IC50 (BRG-1)	Emax (BRG-1)
COC1(c2ccccc2)CCN(c2ccnc(CNC(=O)c3ccc4c(c3)[C@](C)(C#N)COC4)c2)C1 (some centres unmarked) [Compound 58]	92%	0.1 to 0.5 µM	500 to 1000 nM	50%
C[C@@]1(C#N)COCc2ccc(C(=O)NCc3cc(N4CC(n5ccc6ccccc65)C4)ccn3)cc21 [Compound 59]	93%	0.1 to 0.5 µM	500 to 1000 nM	56%
C[C@@]1(C#N)COCc2ccc(C(=O)NCc3cc(N4CCC(F)(c5ccccc5)C4)ccn3)cc21 (some centres unmarked) [Compound 60]	93%	0.1 to 0.5 µM	500 to 1000 nM	75%
C[C@@]1(C#N)COCc2ccc(C(=O)NCc3cc(OCC4CCOCC4)ccn3)cc21 [Compound 61]	85%	0.1 to 0.5 µM	> 1000 nM	25%
C[C@@]1(C#N)COCc2ccc(C(=O)NCc3cc(C4CCN(c5ccccc5)C4)ccn3)cc21 (some centres unmarked) [Compound 62]	90%	0.1 to 0.5 µM	> 1000 nM	42%
C[C@@]1(C#N)COCc2ccc(C(=O)NCc3cc(N4CCc5ccc(C(F)F)cc5C4)ccn3)cc21 [Compound 63]	99%	< 0.1 µM	500 to 1000 nM	84%
C[C@@]1(C#N)COCc2ccc(C(=O)NCc3cc(OCc4ccc(C#N)cc4)ccn3)cc21 [Compound 64]	87%	0.1 to 0.5 µM	> 1000 nM	36%
C[C@@]1(C#N)COCc2ccc(C(=O)NCc3cc(OCc4cccc(C#N)c4)ccn3)cc21 [Compound 65]	90%	0.1 to 0.5 µM	> 1000 nM	39%
C[C@@]1(C#N)COCc2ccc(C(=O)NCc3nccc(N4CCc5ccccc5C4)c3F)cc21 [Compound 66]	99%	0.1 to 0.5 µM	500 to 1000 nM	76%
C[C@@]1(C#N)COCc2ccc(C(=O)NCc3cc(N4CCc5cc(C(F)F)ccc5C4)ccn3)cc21 [Compound 67]	97%	0.1 to 0.5 µM	500 to 1000 nM	84%
C[C@@]1(C#N)COCc2ccc(C(=O)NCc3nccc(N4Cc5ccccc5C4)c3F)cc21 [Compound 68]	98%	< 0.1 µM	100 to 500 nM	91%
C[C@@]1(C#N)COCc2ccc(C(=O)NCc3cc(C4CCN(c5cccc(C(F)F)n5)C4)ccn3)cc21 (some centres unmarked) [Compound 69]	90%	0.1 to 0.5 µM	500 to 1000 nM	50%
COc1ccc([C@H]2C[C@@H](c3ccnc(CNC(=O)c4ccc5c(c4)[C@](C)(C#N)COC5)c3)C2)cc1 [Compound 70]	94%	0.1 to 0.5 µM	500 to 1000 nM	55%
COc1cccc([C@H]2C[C@@H](c3ccnc(CNC(=O)c4ccc5c(c4)[C@](C)(C#N)COC5)c3)C2)c1 [Compound 71]	89%	0.1 to 0.5 µM	> 1000 nM	42%
COc1ccc([C@H]2C[C@H](c3ccnc(CNC(=O)c4ccc5c(c4)[C@](C)(C#N)COC5)c3)C2)cc1 [Compound 72]	94%	< 0.1 µM	100 to 500 nM	91%
Cn1ccc2c(c1=O)CCN(c1ccnc(CNC(=O)c3ccc4c(c3)[C@](C)(C#N)COC4)c1)C2 [Compound 73]	84%	0.1 to 0.5 µM	> 1000 nM	44%
COc1cccc([C@H]2C[C@H](c3ccnc(CNC(=O)c4ccc5c(c4)[C@](C)(C#N)COC5)c3)C2)c1 [Compound 74]	98%	< 0.1 µM	100 to 500 nM	87%
C[C@@]1(C#N)COCc2ccc(C(=O)NCc3cc(N4CCc5ccccc5C4)cnn3)cc21 [Compound 75]	97%	0.1 to 0.5 µM	500 to 1000 nM	54%
CN(C)c1cccc([C@H]2C[C@H](c3ccnc(CNC(=O)c4ccc5c(c4)[C@](C)(C#N)COC5)c3)C2)n1 [Compound 76]	98%	0.1 to 0.5 µM	> 1000 nM	91%
C[C@@]1(C#N)COCc2ccc(C(=O)NCc3cc([C@H]4C[C@H](c5cccc(C6CC6)n5)C4)ccn3)cc21 [Compound 77]	99%	0.1 to 0.5 µM	500 to 1000 nM	102%
C[C@@]1(C#N)COCc2ccc(C(=O)NCc3cc([C@H]4C[C@@H](c5cccc(C6CC6)n5)C4)ccn3)cc21 [Compound 78]	96%	< 0.1 µM	500 to 1000 nM	79%
C[C@@]1(C#N)COCc2ccc(C(=O)NCc3cc([C@H]4C[C@H](c5cccc(N6CCOCC6)n5)C4)ccn3)cc21 [Compound 79]	96%	0.1 to 0.5 µM	500 to 1000 nM	74%
